Reference: patent US9283242B2, “Uses of dihydro bases” (priority 2013, dated 2016)

Key:
[1] = Mutagenesis model: base-pairing preference of tautomers combined with NMR tautomeric distribution; conditions: assuming imine geometric isomers present in equal proportions
Method: One of the fundamental assumptions in developing a mutagenesis model is that each KP1212 tautomer has a distinct base-pairing preference. To establish these preferences, in a relatively simple modeling exercise each tautomer was analyzed for its most probable base-pairing partner on the basis of hydrogen bonding. The primary criterion for correct base-pairing was formation of the maximum number of Watson-Crick type hydrogen bonds between the bases. Each type of hydrogen bond was considered to confer an equal stabilization energy. Configurations in which multiple base pairs had equal hydrogen bond numbers were considered equally probable. Since KP1212 is a cytosine (pyrimidine) analog, and the primary mutagenic events are A to G or G to A, our modeling exercise explored only purine-pyrimidine putative base pairs. Several KP1212 tautomers featured a canonical Watson-Crick face. Thus, tautomers enol-amino (1), enol-imino (2Z) and keto-amino (4) were predicted to pair with guanine, while keto-imino (5E) was predicted to pair with adenine (FIG. 19). The remaining tautomers could not adopt a canonical Watson-Crick face and therefore were hypothesized to pair in other geometries (i.e., wobble pairings, or syn-conformer pairings). […]

[2] = Phase I and II clinical trials; cited from earlier work
[3] = target: PfuTurbo DNA polymerase (Pyrococcus furiosus, UniProt P61875); assay: In vitro polymerase extension assay on KP1212-containing M13 template; assay type: biochemical
Method: (A) A 16mer oligonucleotide containing KP1212 (SEQ ID NO: 1) (or controls) at a specific site was chemically synthesized and ligated into the genome of an M13 bacteriophage. (B) The KP1212-containing M13 genomes were replicated within E. coli cells. Progeny were analyzed to characterize the amount and the type of nucleic acid base placed opposite the lesion during replication. The relative reduction in lesion vs. non-lesion competitor progeny formation was used as an estimate of the extent to which KP1212 and m3C inhibited DNA replication. (C) The KP1212-containing M13 genomes were used as templates for in vitro polymerase extension assays, carried out at 72° C., using the high-fidelity DNA polymerase PfuTurbo. (D) Bypass efficiency (CRAB assay) of KP1212, m3C, C in HK81 (AlkB^+) and HK82 (AlkB^−) E. coli cells. m3C and undamaged C were used as controls. Genomes were made and normalized to one another before being combined with a competitor genome. Each mixture was transformed into the corresponding cell strain in triplicate, and bypass efficiency was calculated by using the undamaged C genome as 100% bypass, with error bars representing one standard deviation. (E) Mutagenesis (REAP assay) of KP1212, m3C, and C in HK82 (AlkB^−) E. coli cells. m3C, undamaged C, and an approximately equimolar mixture of genomes carrying unmodified G/A/T/C bases at the site of inquiry (denoted as GATC) were used as controls. Genomes containing the lesions of interest were transfected into E. coli in triplicate.
The single-stranded, lesion-containing genomes, constructed above were also used as templates for in vitro polymerase extension assays. Fifty fmol of each genome were mixed with 50 pmol of REAP forward and reverse primers, 1.25 U Pfu Turbo DNA polymerase and 5 nmol of each dNTP in 1×Pfu Turbo buffer. […] Subsequently, 29 PCR cycles amplified the newly formed strand and generated a product that was then analyzed using the exact downstream steps of the REAP assay described above. […]

[4] = in vitro, 72° C., PfuTurbo DNA polymerase (FIG. 18C)

Chain of PfuTurbo DNA polymerase (P61875 whole entry): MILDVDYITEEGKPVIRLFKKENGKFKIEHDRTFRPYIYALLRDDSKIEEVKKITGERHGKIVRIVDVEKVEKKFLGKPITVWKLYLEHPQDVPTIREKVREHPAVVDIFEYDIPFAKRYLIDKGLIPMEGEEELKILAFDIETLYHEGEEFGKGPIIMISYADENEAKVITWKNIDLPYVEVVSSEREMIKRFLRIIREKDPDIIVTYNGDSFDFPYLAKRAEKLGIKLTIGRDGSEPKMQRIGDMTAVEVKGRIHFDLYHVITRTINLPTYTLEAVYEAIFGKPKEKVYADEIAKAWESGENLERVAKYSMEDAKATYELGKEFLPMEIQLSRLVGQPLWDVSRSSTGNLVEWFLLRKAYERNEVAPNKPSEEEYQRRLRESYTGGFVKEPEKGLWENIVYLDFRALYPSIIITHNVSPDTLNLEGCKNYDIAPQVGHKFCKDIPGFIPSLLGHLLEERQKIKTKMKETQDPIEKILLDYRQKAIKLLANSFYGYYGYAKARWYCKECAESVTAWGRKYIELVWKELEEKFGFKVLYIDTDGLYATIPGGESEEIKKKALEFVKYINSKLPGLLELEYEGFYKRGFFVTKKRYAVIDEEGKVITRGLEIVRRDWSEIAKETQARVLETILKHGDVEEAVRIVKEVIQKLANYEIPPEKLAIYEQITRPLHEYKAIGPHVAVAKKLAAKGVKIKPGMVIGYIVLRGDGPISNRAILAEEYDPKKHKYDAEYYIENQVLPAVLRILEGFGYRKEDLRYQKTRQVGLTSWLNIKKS

NC1=NC(=O)N([C@H]2C[C@H](O)[C@@H](CO)O2)CN1 [KP1212, 5-aza-5,6-dihydro-2′-deoxycytidine]
model-predicted pairing with A [1]: ~20 % of the time
model-predicted pairing with G [1]: ~80 % of the time
safety in clinical trials [2]: safe
pH dependence of mispairing frequency ([3]; in vitro polymerase extension reaction, pH 7.0 and 7.8, preliminary studies): did not vary significantly
A placed opposite KP1212 [3, 4]: 9.5 % of the time
G placed opposite KP1212 [3, 4]: 90.5 % of the time
